Values after ≈ are worked out from the molar mass of the structure shown. Non-standard residues stand in square brackets, D forms with d. Residues, ends and D or L forms follow the SMILES beside them. No end group written: not given here.
What was measured:
A. baumannii ATCC19606 = experiment: microbe, parasite or virus in culture; conditions: for MIC A. baumannii, 12.5% MHB / MIC A. baumannii, Full MHB: A. baumannii ATCC19606, 16–20 h at 37 °C; for MIC A. baumannii, 12.5% MHB: 12.5% Müller–Hinton medium; for MIC A. baumannii, Full MHB: full Müller–Hinton medium; for MIC A. baumannii ATCC19606: supplement CSV
Excerpt: (§1) We tested antibacterial effects against the Gram-negative bacteria Escherichia coli, Klebsiella pneumoniae, Pseudomonas aeruginosa, and Acinetobacter baumannii and the Gram-positive methicillin-resistant Staphylococcus aureus (MRSA).
(§2) Bacterial growth assay (Figure S1), transmission electron microscopy (Figure S6), serum stability assay (Figure S7), circular dichroism spectral recording (Figures S8 and S9), antimicrobial and hemolysis activity assays (MIC and MHC), and vesicle leakage assay were carried out as described in earlier publications.[43],[44]
(§3) Minimum inhibitory concentration assay
(§4) Antimicrobial activity was assayed against P. aeruginosa PAO1, K. pneumoniae NCTC418, E. coli W3110, A. baumannii ATCC 19606, methicillin-resistant S. aureus COL (MRSA), and for selected peptides on P. aeruginosa PA14 and the polymyxin-B-resistant derivative PA14 2P4, as well as the clinical isolates ZEM-1A and ZEM9A, K. pneumoniae OXA-48, S. aureus Newman, Enterobacter cloacae and Burkholderia cenocepacia. The minimal inhibitory concentration (MIC) was determined by using broth microdilution method. A colo ny of bacteria was picked and grown in Luria-Bertani (LB) medium overnight at 37°C. For E. coli BW25113 sbmA::kan the medium was supplemented with 25 mg/L of kanamycin. The next day, the culture was then regrown in LB medium to log phase (OD600 = 0.6 to 0.8), which lasted approximately 4 h, and diluted to an OD600 of 0.022 in the desired medium. Stock solutions of 1 mg/mL of the samples were prepared in sterilized milliQ water and diluted to the beginning concentration of 64 μg/mL in 300 μL Mueller Hinton (MH)-medium. The diluted samples were added to first well of 96-well microtiter plate (TPP, untreated, Faust Laborbedarf, AG, Schaffhausen) and diluted serially by ½. Finally, 4 μL of the bacterial suspension was inoculated into the sample solutions (150 μL/well) with a final inoculation of about 5∙10^5 CFU/mL. The plates were then incubated at 37°C for 15-18h. For each assay, sterility (broth only) and growth control (broth with bacterial inoculum, without antibiotics) were checked with two columns in the plate. The next day, 15 μL of 3-(4,5-dimethylthiazol-2-yl)-2,5-diphenyltetrazolium bromide (MTT) was added to each well of the plate, such a way that MIC was defined as the lowest concentration of the peptide that inhibited visible growth of the tested

E. coli W3110 = experiment: microbe, parasite or virus in culture; conditions: for MIC E. coli, 12.5% MHB / MIC E. coli, Full MHB: E. coli W3110, 16–20 h at 37 °C, broth microdilution; for MIC E. coli, 12.5% MHB: 12.5% Müller–Hinton medium; for MIC E. coli, Full MHB: full Müller–Hinton medium; for MIC E. coli W3110: supplement CSV
Excerpt: as §1, §2, §3, §4

K. pneumoniae NCTC 418 = experiment: microbe, parasite or virus in culture; conditions: for MIC K. pneumoniae, 12.5% MHB / MIC K. pneumoniae, Full MHB: K. pneumoniae NCTC 418, 16–20 h at 37 °C; for MIC K. pneumoniae, 12.5% MHB: 12.5% Müller–Hinton medium; for MIC K. pneumoniae, Full MHB: full Müller–Hinton medium; for MIC K. pneumoniae NCTC418: supplement CSV
Excerpt: as §1, §2, §3, §4

P. aeruginosa PAO1 = experiment: microbe, parasite or virus in culture; conditions: for MIC P. aeruginosa, 12.5% MHB / MIC P. aeruginosa, Full MHB: P. aeruginosa PAO1, 16–20 h at 37 °C; for MIC P. aeruginosa, 12.5% MHB: 12.5% Müller–Hinton medium; for MIC P. aeruginosa, Full MHB: full Müller–Hinton medium; for MIC P. aeruginosa PAO1: supplement CSV
Excerpt: as §1, §2, §3, §4

S. aureus COL (MRSA) = experiment: microbe, parasite or virus in culture; conditions: for MIC S. aureus, 12.5% MHB / MIC S. aureus, Full MHB: S. aureus COL (MRSA), 16–20 h at 37 °C; for MIC S. aureus, 12.5% MHB: 12.5% Müller–Hinton medium; for MIC S. aureus, Full MHB: full Müller–Hinton medium; for MIC S. aureus COL (MRSA): supplement CSV
Excerpt: as §1, §2, §3, §4

human red blood cells = experiment: Hemolysis assay, minimum hemolytic concentration; conditions: for Haemolysis on hRBC, MHC: 2.5% human red blood cells (final) in 10 mM phosphate, 150 mM NaCl, pH 7.4, 25 °C, 4 h, visual inspection; for MHC human red blood cells: supplement CSV

Molecule | MIC A. baumannii, 12.5% MHB (A. baumannii ATCC19606) | MIC A. baumannii, Full MHB (A. baumannii ATCC19606) | MIC A. baumannii ATCC19606 (A. baumannii ATCC19606; 12.5% MH pH 7.4) | MIC A. baumannii ATCC19606 (A. baumannii ATCC19606; full MH pH 7.4) | MIC E. coli, 12.5% MHB (E. coli W3110) | MIC E. coli, Full MHB (E. coli W3110) | MIC E. coli W3110 (E. coli W3110; 12.5% MH pH 7.4) | MIC E. coli W3110 (E. coli W3110; full MH pH 7.4) | MIC K. pneumoniae, 12.5% MHB (K. pneumoniae NCTC 418) | MIC K. pneumoniae, Full MHB (K. pneumoniae NCTC 418) | MIC K. pneumoniae NCTC418 (K. pneumoniae NCTC 418; 12.5% MH pH 7.4) | MIC K. pneumoniae NCTC418 (K. pneumoniae NCTC 418; full MH pH 7.4) | MIC P. aeruginosa, 12.5% MHB (P. aeruginosa PAO1) | MIC P. aeruginosa, Full MHB (P. aeruginosa PAO1) | MIC P. aeruginosa PAO1 (P. aeruginosa PAO1; 12.5% MH pH 7.4) | MIC P. aeruginosa PAO1 (P. aeruginosa PAO1; full MH pH 7.4) | MIC S. aureus, 12.5% MHB (S. aureus COL (MRSA)) | MIC S. aureus, Full MHB (S. aureus COL (MRSA)) | MIC S. aureus COL (MRSA) (S. aureus COL (MRSA); 12.5% MH pH 7.4) | MIC S. aureus COL (MRSA) (S. aureus COL (MRSA); full MH pH 7.4) | other results
CC[C@H](C)[C@H](NC(=O)[C@H](CCCNC(=N)N)NC(=O)[C@H](CCCNC(=N)N)NC(=O)[C@@H]1CCCN1C(=O)[C@H]1CCCN1C(=O)[C@H](CCCNC(=N)N)NC(=O)[C@@H]1CCCN1C(=O)[C@H](CCCNC(=N)N)NC(=O)[C@@H]1CCCN1C(=O)[C@H](CC(C)C)NC(=O)[C@H](Cc1ccc(O)cc1)NC(=O)[C@@H]1CCCN1C(=O)[C@@H]1CCCN1C(=O)[C@H](CCCCN)NC(=O)[C@H](CC(=O)O)NC(=O)[C@@H](N)C(C)C)C(=O)N[C@@H](Cc1ccc(O)cc1)C(=O)N[C@@H](CC(N)=O)C(=O)N[C@@H](CCCNC(=N)N)C(N)=O [DP12-Onc] (H-VDKPPYLPRPR[dP]PRRIYNR-NH2) | 8 µg/mL (≈ 3.35 µM) | 16 µg/mL (≈ 6.69 µM) | 8 µg/mL (≈ 3.35 µM) | 16 µg/mL (≈ 6.69 µM) | 2 µg/mL (≈ 0.837 µM) | 8 µg/mL (≈ 3.35 µM) | 2 µg/mL (≈ 0.837 µM) | 8 µg/mL (≈ 3.35 µM) | 4 µg/mL (≈ 1.67 µM) | 16 µg/mL (≈ 6.69 µM) | 4 µg/mL (≈ 1.67 µM) | 16 µg/mL (≈ 6.69 µM) | 16 µg/mL (≈ 6.69 µM) | > 64 µg/mL | 16 µg/mL (≈ 6.69 µM) | >64 µg/mL | >64 / 64 μg/mL | >64 / 64 μg/mL | 64 µg/mL (≈ 26.8 µM) | >64 µg/mL | Haemolysis on hRBC, MHC (human red blood cells): >1000 µg/mL; MHC human red blood cells (human red blood cells): >1000 µg/mL
VDKPPYLPRPRPPRRIYNR [srP45-Onc] (VDKPPYLPRPRPPRRIYNR-NH2; also: residues 4-5 (Pro-Pro) stereorandomized (1:1 L/D mixture)) | 8 µg/mL | 64 µg/mL | 8 µg/mL | 64 µg/mL | 4 µg/mL | 16 µg/mL | 4 µg/mL | 16 µg/mL | 8 µg/mL | 16 µg/mL | 8 µg/mL | 16 µg/mL | > 16 µg/mL | > 64 µg/mL | >16 µg/mL | >64 µg/mL | >64 / 64 μg/mL | >64 / 64 μg/mL | 64 µg/mL | >64 µg/mL | Haemolysis on hRBC, MHC (human red blood cells): >1000 µg/mL; MHC human red blood cells (human red blood cells): >1000 µg/mL
CC[C@@H](C)[C@@H](NC(=O)[C@@H](CCCNC(=N)N)NC(=O)[C@@H](CCCNC(=N)N)NC(=O)[C@H]1CCCN1C(=O)[C@H]1CCCN1C(=O)[C@H](CCCNC(=N)N)NC(=O)[C@@H]1CCCN1C(=O)[C@H](CCCNC(=N)N)NC(=O)[C@@H]1CCCN1C(=O)[C@H](CC(C)C)NC(=O)[C@H](Cc1ccc(O)cc1)NC(=O)[C@@H]1CCCN1C(=O)[C@@H]1CCCN1C(=O)[C@H](CCCCN)NC(=O)[C@H](CC(=O)O)NC(=O)[C@@H](N)C(C)C)C(=O)N[C@H](Cc1ccc(O)cc1)C(=O)N[C@H](CC(N)=O)C(=O)N[C@H](CCCNC(=N)N)C(N)=O [D8Cterm-Onc] (H-VDKPPYLPRPR[dP][dP][dR][dR][dI][dY][dN][dR]-NH2) | 8 µg/mL (≈ 3.35 µM) | 64 µg/mL (≈ 26.8 µM) | 8 µg/mL (≈ 3.35 µM) | 64 µg/mL (≈ 26.8 µM) | 1 µg/mL (≈ 0.418 µM) | 16 µg/mL (≈ 6.69 µM) | 1 µg/mL (≈ 0.418 µM) | 16 µg/mL (≈ 6.69 µM) | 2 µg/mL (≈ 0.837 µM) | 4 µg/mL (≈ 1.67 µM) | 2 µg/mL (≈ 0.837 µM) | 4 µg/mL (≈ 1.67 µM) | 4 µg/mL (≈ 1.67 µM) | > 64 µg/mL | 4 µg/mL (≈ 1.67 µM) | >64 µg/mL | >64 / 64 μg/mL | >64 / 64 μg/mL | 64 µg/mL (≈ 26.8 µM) | >64 µg/mL | Haemolysis on hRBC, MHC (human red blood cells): >1000 µg/mL; MHC human red blood cells (human red blood cells): >1000 µg/mL
VDKPPYLPRPRPPRRIYNR [sr7Cterm-Onc] (VDKPPYLPRPRPPRRIYNR-NH2; also: residues 13-19 stereorandomized (1:1 L/D mixture)) | 4 µg/mL | 32 µg/mL | 4 µg/mL | 32 µg/mL | 1 µg/mL | 8 µg/mL | 1 µg/mL | 8 µg/mL | 1 µg/mL | 4 µg/mL | 1 µg/mL | 4 µg/mL | 4 µg/mL | 64 µg/mL | 4 µg/mL | 64 µg/mL | > 16 µg/mL | > 64 µg/mL | >16 µg/mL | >64 µg/mL | Haemolysis on hRBC, MHC (human red blood cells): >1000 µg/mL; MHC human red blood cells (human red blood cells): >1000 µg/mL
VDKPPYLPRPRPPRRIYNR [sr3N5Cterm-Onc] (VDKPPYLPRPRPPRRIYNR-NH2; also: residues 1-3 and 15-19 stereorandomized (1:1 L/D mixture)) | 4 µg/mL | 32 µg/mL | 4 µg/mL | 32 µg/mL | 1 µg/mL | 8 µg/mL | 1 µg/mL | 8 µg/mL | 1 µg/mL | 16 µg/mL | 1 µg/mL | 16 µg/mL | 8 µg/mL | > 64 µg/mL | 8 µg/mL | >64 µg/mL | >64 / 64 μg/mL | >64 / 64 μg/mL | 64 µg/mL | >64 µg/mL | Haemolysis on hRBC, MHC (human red blood cells): >1000 µg/mL; MHC human red blood cells (human red blood cells): >1000 µg/mL

From paper PMC11571207, “Stereorandomized Oncocins with Preserved Ribosome Binding and Antibacterial Activity” (Journal of Medicinal Chemistry, 2024)
